{
  "source": "patent US8609065B2",
  "about": "“Molecules for targeting compounds to various selected organs, tissues or tumor cells” (Prosensa Technologies B.V., priority 2007, dated 2013)",
  "key": {"KM109 cells": {"test_system": "KM109 cells", "assay": "Uptake of fluorescently labeled variants of THRPPMWSPVWP on KM109 cells", "type": "cell-based", "conditions": "fluorescently labeled peptide", "procedure": "Several variants of peptide THRPPMWSPVWP (SEQ ID NO: 1) (see Table 2) were selected, synthesized with a fluorescent label and tested for uptake on KM109 cells. Peptides 3, 7, 8, 9, 10, and 11 were tested. […] The other peptides depicted in the table below are yet to be tested for uptake on KM109 cells. Moreover, all peptides are to be tested for uptake on neuroblastoma cells in a similar fashion."}, "muscle cells": {"test_system": "muscle cells", "assay": "Selective uptake by muscle cells (summary statement)", "type": "cell-based", "excerpt": "Therefore, these may be used for targeting diagnostic moieties or biologically active moieties to an organ or tissue or cell type of interest, especially to muscle cells or across the blood brain barrier to brain cells, to neuronal cells or to tumor cells of neuronal or neuroectodermal origin."}, "[1]": {"assay": "In vivo targeting to brain cells, Cy5-labeled peptide imaging", "conditions": "7 nmol intravenously, nude mouse", "procedure": "Peptide THRPPMWSPVWP (SEQ ID NO: 1) was labeled with a Cy5 fluorescent label and 7 nmol was injected intravenously into the tail vein of a nude mouse. Pictures were taken with a Maestro imaging system using the filters for Cy5 detection.\nOn the left side of FIGS. 1A and 1B the detected Cy5 pattern is shown separately in red for quantitation. The numbers on the left side indicate the amount of detected Cy5 label."}, "[2]": {"test_system": "N1E-115 mouse neuroblastoma cells", "assay": "In vitro uptake of FAM-labeled peptides into neuroblastoma cells (fluorescence microscopy)", "type": "cell-based", "conditions": "FAM-labeled peptide, N1E-115 cells", "procedure": "A selection of peptides was synthesized and provided with a fluorescent label (FAM) and screened for uptake on mouse neuroblastoma cells in vitro.\nN1E-115 mouse neuroblastoma cells were incubated with the FAM-labeled peptides and photographed with an inverted fluorescence microscope, without previous fixation."}},
  "note": "Peptide text beside a SMILES is read from it.",
  "data": [
    {"compound": "HRPPMWSPVWP", "values": [
      {"measurement": "uptake on KM109 cells", "setting": "KM109 cells", "result": "taken up very efficiently"},
      {"measurement": "selective uptake by muscle cells", "setting": "muscle cells", "result": "selectively taken up by muscle cells"}
    ]},
    {"compound": "THRPPMWS", "values": [
      {"measurement": "uptake on KM109 cells", "setting": "KM109 cells", "result": "taken up, although at a lower level"},
      {"measurement": "selective uptake by muscle cells", "setting": "muscle cells", "result": "selectively taken up by muscle cells"}
    ]},
    {"compound": "HRPPMWSPVW", "values": [
      {"measurement": "uptake on KM109 cells", "setting": "KM109 cells", "result": "taken up, although at a lower level"},
      {"measurement": "selective uptake by muscle cells", "setting": "muscle cells", "result": "selectively taken up by muscle cells"}
    ]},
    {"compound": "CSCC[C@H](NC(=O)[C@@H]1CCCN1C(=O)[C@@H]1CCCN1C(=O)[C@H](CCCNC(=N)N)NC(=O)[C@H](Cc1c[nH]cn1)NC(=O)[C@@H](N)[C@@H](C)O)C(=O)N[C@@H](Cc1c[nH]c2ccccc12)C(=O)N[C@@H](CO)C(=O)N1CCC[C@H]1C(=O)N[C@H](C(=O)N[C@@H](Cc1c[nH]c2ccccc12)C(=O)N1CCC[C@H]1C(=O)O)C(C)C", "note": "[THRPPMWSPVWP] (H-THRPPMWSPVWP-OH; N-terminus and C-terminus assumed)", "values": [
      {"measurement": "crossing of the blood brain barrier", "setting": "[1]", "result": "able to cross the blood brain barrier"},
      {"measurement": "Cy5 signal in the brain", "setting": "[1]; 20 minutes after injection", "result": "clear signal could be detected in the brain"}
    ]},
    {"compound": "LPWKPLG", "values": [
      {"measurement": "intracellular staining pattern after uptake", "setting": "[2]", "result": "uniform staining of the cytoplasm as well as the nucleus"},
      {"measurement": "uptake by the neuroblastoma cells", "setting": "[2]; inverted fluorescence microscope, no fixation", "result": "efficiently taken up"}
    ]}
  ]
}
